Experimental data from patent US20220184071A1, “GEPOTIDACIN FOR USE IN THE TREATMENT OF BACTERIAL URINARY TRACT INFECTIONS” (GlaxoSmithKline Intellectual Property Development Limited, priority 2019, published 2022).
≈ marks a conversion by molar mass, not a printed value. Read-outs that look alike come from different tables or passages of the source.

How the values were obtained:
[1] = system: E. coli ALL; assay: Neutropenic mouse kidney infection (pyelonephritis/UTI) model PK/PD; format: in vivo; details: Strain ALL
Experimental: (§1) PK and PD studies using gepotidacin were conducted in murine (male CD-1 mice) thigh and kidney infections. The administered doses ranged from 1 to 200 mg/kg SC every 6 hours starting 1h post infection. Infected tissues were evaluated for bacterial burden at 24 h post infection (baseline controls at 1 h post infection).
(§2) Efficacy was determined against E. coli ALL, 997577, ATCC25922, IR5 and NCTC13441 (MICs of 1 to 4 μg/mL) in thigh-infected neutropenic (I−) mice and against E. coli ALL in kidney-infected immunocompetent (I+) and I− mice. The PopPK model was used to determine GEP exposures associated with efficacy. PK-PD analyses were conducted using Phoenix WinNonLin 6.3 (Pharsight). The change in login colony forming units (CFU) from baseline were correlated with free drug (f) AUC:MIC using an inhibitory model from the Phoenix library, and model parameter values for each isolate were used to calculate the plasma fAUC:MIC associated with stasis, 1- or 2-login reductions in CFU.
(§3) PD studies were conducted using thigh and/or kidney infection models in neutropenic or competent mice (N=5/group). Mice were infected with a bacterial suspension in log phase: 100 μL in the left thigh muscle or 50 μL in each of both kidneys (100 μl total). Final inocula across all isolates were 6.0 to 7.0 login CFU/mouse. Dose-ranging studies were conducted with 5 isolates (see Table 1). Starting 1 hr after infection, GEP was given SC (0.2 mL/mouse) at discrete doses of 1-200 mg/kg every 6 hours (q6) for a 24-hour period (4 doses in total). Mice were euthanized 24 hr after start of therapy (6 hr after the last dose), and infected thighs or kidneys were processed to determine viable bacterial counts (CFU). Baseline CFU were obtained from untreated mice at 1 hr post infection and growth control CFU from saline-treated mice at 24 hr.
NCA analyses were conducted with the simulated data. […]

[2] = system: E. coli; assay: Neutropenic mouse thigh infection model PK/PD; format: in vivo
Experimental: as §1, §2, §3
NCA analyses were conducted with the simulated data.
PK-PD analysis was conducted using Phoenix WinNonLin 6.3 (Pharsight): • Log10 colony forming units (CFU) from each group were correlated with PK-PD parameters using several inhibitory models from the Phoenix library. • Model parameter values for each isolate were used to calculate the PK-PD parameter value associated with stasis, 1-log or 2-log reductions from baseline 1 h controls.

[3] = system: Providencia rettgeri; assay: MIC, Example 5 Method 1; format: cell-based; details: at least one isolate tested
[4] = Exposure in epithelial lining fluid (ELF) and alveolar macrophages (AM), healthy subjects; format: in vivo; details: human, single 1000 mg IV infusion over 2 hours
Experimental: Antibiotic target site exposures play a key role as suboptimal levels may lead to therapeutic failure and resistance. Across multiple clinical studies, exposures to gepotidacin were assessed in plasma and other matrices, such as urine, saliva, epithelial lining fluid (ELF) and Alveolar Macrophages (AM).
Bronchoalveolar lavage samples were collected to determine gepotidacin exposures in ELF and AM following a single 1000 mg IV infusion over 2 hours to healthy subjects. Saliva exposure was assessed in healthy volunteers following 1500 mg oral single dose. Gepotidacin exposures in urine was assessed in women with acute uUTI following 1500 mg BID oral doses for 5 days.

[5] = system: S. anginosus; assay: MIC by CLSI broth microdilution, Example 5 second study; format: cell-based; details: Streptococcus anginosus; 10 isolates, 2013-2014
Text: (§4) A second study tested gepotidacin by CLSI broth microdilution against bacterial isolates collected from patients with acute bacterial skin and soft tissue infections between 2013-2014. Amoxicillin/clavulanic acid, linezolid, fusidic acid, ceftriaxone, ceftaroline, vancomycin, penicillin, quinupristin/dalfopristin, erythromycin, clindamycin, meropenem, tetracycline, chloramphenicol, flucloxacillin, telavancin, daptomycin, trimethoprim/sulfamethoxazole, gentamicin, levofloxacin, tigecycline and cefuroxime were included as comparators. MICs were determined by broth microdilution according to CLSI methods.

[6] = system: viridans streptococci; assay: as above; format: cell-based; details: 19 isolates, 2013-2014
Text: as §4

[7] = MIC, conclusion to Example 1 Methods 1 and 2; format: cell-based; details: at least one strain of every organism listed
Experimental: Antimicrobial activity was determined by broth microdilution using the CLSI recommended procedure.
(§5) Antimicrobial activity was determined in a second study by […] using the CLSI recommended procedure in serial two-fold dilutions and the minimum inhibitory concentration (MIC) was determined as the lowest concentration of the compound that inhibited visible growth.

[8] = system: P. aeruginosa; assay: MIC by CLSI agar dilution, Example 1 Method 2; format: cell-based, Pseudomonas aeruginosa; details: n = 55
Experimental: as §5
MICs were determined according to CLSI agar dilution guidelines.

[9] = 5 E. coli isolates, listed as Gepotidacin

SMILES: O=c1ccc2ncc(=O)n3c2n1C[C@H]3CN1CCC(NCc2cc3c(cn2)OCCC3)CC1 [gepotidacin, (2R)-2-({4-[(3,4-dihydro-2H-pyrano[2,3-c]pyridin-6-ylmethyl)amino]-1-piperidinyl}methyl)-1,2-dihydro-3H,8H-2a,5,8a-triazaacenaphthylene-3,8-dione]
- Daily fAUC/MIC for 1-log Drop [1]: 8.7
- Daily fAUC/MIC for 2-log Drop [1]: 15.6
- Daily fAUC/MIC for Stasis [1]: 4.3
- Median daily plasma fAUC/MIC for 1-log Drop ([2]; 5 E. coli isolates): 16
- Median daily plasma fAUC/MIC for 2-log Drop ([2]; 5 E. coli isolates): 25
- Median daily plasma fAUC/MIC for stasis ([2]; 5 E. coli isolates): 11
- range of plasma fAUC:MIC ratios for 1-log10 reduction in CFU ([2]; 5 E. coli isolates): 4-25
- range of plasma fAUC:MIC ratios for 2-log10 reduction in CFU ([2]; 5 E. coli isolates): 7-40
- range of plasma fAUC:MIC ratios for stasis ([2]; 5 E. coli isolates): 3-17
- Median daily plasma fAUC/MIC for 1-log Drop [2, 9]: 16.0
- Median daily plasma fAUC/MIC for 2-log Drop [2, 9]: 25.4
- Median daily plasma fAUC/MIC for stasis [2, 9]: 10.6
- Daily fAUC/MIC for 1-log Drop, Mean ± SD ([2]; 5 strains): 14.6 ± 9.0
- Daily fAUC/MIC for 2-log Drop, Mean ± SD ([2]; 5 strains): 22.9 ± 12.8
- Daily fAUC/MIC for Stasis, Mean ± SD ([2]; 5 strains): 9.9 ± 6.8
- Daily fAUC/MIC for 1-log Drop ([2]; Strain 997577): 16.0
- Daily fAUC/MIC for 2-log Drop ([2]; Strain 997577): 25.4
- Daily fAUC/MIC for Stasis ([2]; Strain 997577): 10.6
- Daily fAUC/MIC for 1-log Drop ([2]; Strain ALL, Neutropenic Thigh): 6.5
- Daily fAUC/MIC for 2-log Drop ([2]; Strain ALL, Neutropenic Thigh): 13.8
- Daily fAUC/MIC for Stasis ([2]; Strain ALL, Neutropenic Thigh): 3.0
- Daily fAUC/MIC for 1-log Drop ([2]; Strain ATCC25922): 21.5
- Daily fAUC/MIC for 2-log Drop ([2]; Strain ATCC25922): 27.6
- Daily fAUC/MIC for Stasis ([2]; Strain ATCC25922): 16.8
- Daily fAUC/MIC for 1-log Drop ([2]; Strain IR5): 4.3
- Daily fAUC/MIC for 2-log Drop ([2]; Strain IR5): 7.2
- Daily fAUC/MIC for Stasis ([2]; Strain IR5): 2.8
- Daily fAUC/MIC for 1-log Drop ([2]; Strain NCTC13441): 24.9
- Daily fAUC/MIC for 2-log Drop ([2]; Strain NCTC13441): 40.3
- Daily fAUC/MIC for Stasis ([2]; Strain NCTC13441): 16.2
- Median plasma fAUC:MIC targets ranged ([2]; stasis to 2-log10 reduction): 11 to 25
- MIC [3]: 8 µg/mL (≈ 17.8 µM)
- Kp ([4]; alveolar macrophages, read-out: AM AUC(0-12) ratio to unbound plasma): 178
- Kp ([4]; epithelial lining fluid, read-out: ELF AUC(0-12) ratio to unbound plasma): 1.84
- MIC90 [5]: 1 µg/mL (≈ 2.23 µM)
- MIC90 [6]: 0.5 µg/mL (≈ 1.11 µM)
- MIC [7]: ≤ 8 µg/mL
- MIC50 ([8]; Pseudomonas aeruginosa): 8 µg/mL (≈ 17.8 µM)
- MIC90 ([8]; Pseudomonas aeruginosa): 32 µg/mL (≈ 71.3 µM)
- Number of Isolates at Gepotidacin MIC 0.5 mg/L [8]: 1
- Number of Isolates at Gepotidacin MIC 1 mg/L [8]: 2
- Number of Isolates at Gepotidacin MIC 2 mg/L [8]: 4
- Number of Isolates at Gepotidacin MIC 4 mg/L [8]: 18
- Number of Isolates at Gepotidacin MIC 8 mg/L [8]: 15
- Number of Isolates at Gepotidacin MIC ≥16 mg/L [8]: 15
